Assay results as given in the supplement of paper PMC10733146.

What was measured:
Assay in all cases: viability relative to DMSO control (fraction); higher = less drug effect (more viable cells)
Conditions in all cases: 48 h
[1] = compound: CC1(C)CCC(CN2CCN(c3ccc(C(=O)NS(=O)(=O)c4ccc(NCC5CCOCC5)c([N+](=O)[O-])c4)c(Oc4cnc5[nH]ccc5c4)c3)CC2)=C(c2ccc(Cl)cc2)C1 [Venetoclax]
Summary of the method: (§1)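 Viability was measured as CellTiter-Glo luminescence relative to the median of 16 inner DMSO wells. Primary mononuclear tumour cells, fresh or cryopreserved, were Ficoll-isolated from blood or bone marrow or taken from processed lymph node. They were seeded at 4 × 10^4 cells per well into 384-well plates holding pre-plated compounds at five concentrations, one well each, and kept in RPMI-1640 with penicillin/streptomycin, L-glutamine and human serum at 37 °C and 5% CO2 for 48 h.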

[2] = compound: CCS(=O)(=O)N1CCC([C@@H](C)n2c(C)c(C(=O)NCc3c(OC)cc(C)[nH]c3=O)c3ccccc32)CC1 [CPI-169]
Summary of the method: as §1

[3] = compound: CCNC(=O)C[C@@H]1N=C(c2ccc(Cl)cc2)c2cc(OC)ccc2-n2c(C)nnc21 [I-BET-762]
Summary of the method: as §1

[4] = compound: c1cn2cc(-c3ccc4cn[nH]c4c3)nc(Nc3ccc(N4CCOCC4)cc3)c2n1 [Entospletinib]
Summary of the method: as §1

[5] = compound: O=C(Nc1ccc2[nH]nc(-c3ccncc3)c2c1)[C@@H]1CCN(CC(=O)N2CCN(c3ccc(-c4ncccn4)cc3)CC2)C1
Summary of the method: as §1

[6] = compound: C[C@H]1C[C@@H](n2c(Nc3ccc(OC(F)(F)F)cc3)nc3cc(CCC(=O)O)ccc32)CC(C)(C)C1
Summary of the method: as §1

[7] = compound: CC[C@H](CO)Nc1nc(NCc2ccccc2)c2ncn(C(C)C)c2n1 [Roscovitine]
Summary of the method: as §1

[8] = compound: COc1cc(C(=O)O)ccc1NC(=O)[C@@H]1N[C@@H](CC(C)(C)C)[C@](C#N)(c2ccc(Cl)cc2F)[C@H]1c1cccc(Cl)c1F [Idasanutlin (RS7388)]
Summary of the method: as §1

[9] = compound: Cn1c(CCCC(=O)O)nc2cc(N(CCCl)CCCl)ccc21 [Bendamustine]
Summary of the method: as §1

[10] = compound: O=C(NO)c1cccc(C(=O)NCCc2ccccc2)c1
Summary of the method: as §1

[11] = compound: CC[C@]1(O)C[C@@H]2CN(CCc3c([nH]c4ccccc34)[C@@](C(=O)OC)(c3cc4c(cc3OC)N(C)[C@H]3[C@@](O)(C(N)=O)[C@H](O)[C@]5(CC)C=CCN6CC[C@]43[C@@H]65)C2)C1 [Vindesine]
Summary of the method: as §1

[12] = compound: CO[C@H]1C[C@@H]2CC[C@@H](C)[C@@](O)(O2)C(=O)C(=O)N2CCCC[C@H]2C(=O)O[C@H]([C@H](C)C[C@@H]2CC[C@@H](OCCO)[C@H](OC)C2)CC(=O)[C@H](C)/C=C(\C)[C@@H](O)[C@@H](OC)C(=O)[C@H](C)C[C@H](C)/C=C/C=C/C=C/1C [Everolimus]
Summary of the method: as §1

[13] = compound: O=C1CCC(N2C(=O)c3ccccc3C2=O)C(=O)N1 [Thalidomide]
Summary of the method: as §1

Test System: primary AML patient cells (S079)
- viability ([1]; 0.00064 µM): 1.01
- viability ([1]; 0.0032 µM): 0.869
- viability ([1]; 0.016 µM): 0.668
- viability ([1]; 0.08 µM): 0.563
- viability ([1]; 0.4 µM): 0.541
- viability ([2]; 0.024 µM): 0.941
- viability ([2]; 0.12 µM): 0.926
- viability ([2]; 0.6 µM): 0.984
- viability ([2]; 3 µM): 0.951
- viability ([2]; 15 µM): 0.866
- viability ([3]; 0.008 µM): 0.958
- viability ([3]; 0.04 µM): 0.855
- viability ([3]; 0.2 µM): 0.715
- viability ([3]; 1 µM): 0.559
- viability ([3]; 5 µM): 0.422
- viability ([4]; 0.024 µM): 1.01
- viability ([4]; 0.12 µM): 0.936
- viability ([4]; 0.6 µM): 1.04
- viability ([4]; 3 µM): 0.968
- viability ([4]; 15 µM): 0.965
- viability ([5]; 0.008 µM): 0.738
- viability ([5]; 0.04 µM): 0.673
- viability ([5]; 0.2 µM): 0.624
- viability ([5]; 1 µM): 0.519
- viability ([5]; 5 µM): 0.462
- viability ([6]; 0.024 µM): 0.905
- viability ([6]; 0.12 µM): 0.917
- viability ([6]; 0.6 µM): 0.923
- viability ([6]; 3 µM): 0.929
- viability ([6]; 15 µM): 0.935
- viability ([7]; 0.032 µM): 0.895
- viability ([7]; 0.16 µM): 0.985
- viability ([7]; 0.8 µM): 0.976
- viability ([7]; 4 µM): 0.936
- viability ([7]; 20 µM): 0.682
- viability ([8]; 0.032 µM): 0.809
- viability ([8]; 0.16 µM): 0.865
- viability ([8]; 0.8 µM): 0.747
- viability ([8]; 4 µM): 0.583
- viability ([8]; 20 µM): 0.523
- viability ([9]; 0.032 µM): 1.01
- viability ([9]; 0.16 µM): 1.02
- viability ([9]; 0.8 µM): 0.997
- viability ([9]; 4 µM): 1.04
- viability ([9]; 20 µM): 0.952
- viability ([10]; 0.024 µM): 0.944
- viability ([10]; 0.12 µM): 0.968
- viability ([10]; 0.6 µM): 0.95
- viability ([10]; 3 µM): 0.928
- viability ([10]; 15 µM): 0.929
- viability ([11]; 0.016 µM): 0.888
- viability ([11]; 0.08 µM): 0.842
- viability ([11]; 0.4 µM): 0.718
- viability ([11]; 2 µM): 0.621
- viability ([11]; 10 µM): 0.562
- viability ([12]; 0.0032 µM): 0.804
- viability ([12]; 0.016 µM): 0.805
- viability ([12]; 0.08 µM): 0.795
- viability ([12]; 0.4 µM): 0.798
- viability ([12]; 2 µM): 0.801
- viability ([13]; 0.032 µM): 0.91
- viability ([13]; 0.16 µM): 0.915
- viability ([13]; 0.8 µM): 0.93
- viability ([13]; 4 µM): 0.962
- viability ([13]; 20 µM): 0.978

Test System: primary T-NHL patient cells (S058)
- viability ([1]; 0.00064 µM): 1.06
- viability ([1]; 0.0032 µM): 1.13
- viability ([1]; 0.016 µM): 0.921
- viability ([1]; 0.08 µM): 0.718
- viability ([1]; 0.4 µM): 0.547
- viability ([2]; 0.024 µM): 1.03
- viability ([2]; 0.12 µM): 1.06
- viability ([2]; 0.6 µM): 0.995
- viability ([2]; 3 µM): 1.05
- viability ([2]; 15 µM): 0.961
- viability ([3]; 0.008 µM): 1.17
- viability ([3]; 0.04 µM): 1.03
- viability ([3]; 0.2 µM): 0.904
- viability ([3]; 1 µM): 0.816
- viability ([3]; 5 µM): 0.61
- viability ([4]; 0.024 µM): 1.03
- viability ([4]; 0.12 µM): 1.09
- viability ([4]; 0.6 µM): 0.875
- viability ([4]; 3 µM): 1.04
- viability ([4]; 15 µM): 1.06
- viability ([5]; 0.008 µM): 1.04
- viability ([5]; 0.04 µM): 1.1
- viability ([5]; 0.2 µM): 1.01
- viability ([5]; 1 µM): 0.989
- viability ([5]; 5 µM): 0.908
- viability ([9]; 0.032 µM): 0.971
- viability ([9]; 0.16 µM): 1.01
- viability ([9]; 0.8 µM): 0.925
- viability ([9]; 4 µM): 0.868
- viability ([9]; 20 µM): 0.564
- viability ([10]; 0.024 µM): 1.02
- viability ([10]; 0.12 µM): 1.31
- viability ([10]; 0.6 µM): 1.07
- viability ([10]; 3 µM): 1.02
- viability ([10]; 15 µM): 1.08
- viability ([12]; 0.0032 µM): 0.922
- viability ([12]; 0.016 µM): 1.07
- viability ([12]; 0.08 µM): 0.954
- viability ([12]; 0.4 µM): 1.03
- viability ([12]; 2 µM): 0.944
- viability ([13]; 0.032 µM): 1.03
- viability ([13]; 0.16 µM): 1.02
- viability ([13]; 0.8 µM): 1.07
- viability ([13]; 4 µM): 1.14
- viability ([13]; 20 µM): 1.02
